Results taken from EP0652009A1, “Identification and use of protease inhibitors” (ELI LILLY AND COMPANY, priority 1993, dated 1995).
Non-standard residues stand in square brackets, D forms with d. Residues, ends and D or L forms follow the SMILES beside them. Sta = CC(C)C[C@H](N)[C@@H](O)CC(=O)O; N(iPr)Gly = CC(C)NCC(=O)O

Key:
Human brain cathepsin D = molecular target: T1, Human brain cathepsin D (Homo sapiens, UniProt P07339); assay: Assay 1: cathepsin D inhibition activity (non-cellular assay, porcine renin tetradecapeptide substrate, RP-HPLC); format: biochemical; conditions: purified human brain cathepsin D, pH 4.5, 44 µM porcine renin tetradecapeptide, 37°C
T1 construct: Human brain cathepsin D was purified from frozen post-mortem cortex; from tissue; host or cells: human post-mortem brain cortex
Protocol: An example of a non-cellular assay that may be used to determine in vitro aspartyl protease inhibitory activity reacts partially purified human brain cathepsin D with a substrate, e.g., porcine renin tetradecapeptide. The resultant reaction mixture is divided into portions and each portion is incubated for a different period of time. After the reaction is stopped, the turnover of substrate in each portion is determined using reverse-phase HPLC. Protease inhibition activity may be calculated based on the rates of substrate turnover. This assay is exemplified in Assay 1, below. Human brain cathepsin D was purified from frozen post-mortem cortex substantially in accordance with the method of Nixon and Morotta, (1984) J. Neurochem. 43:507-516. The cortex material was prepared and applied to a DEAE-Sepharose® column. The flow through fraction was dialyzed against 50mM Tris-HCl, pH 7.5, and applied to concanavalin A Sepharose® and eluted with 50mM Tris, pH 7.5, 0.5M methyl α-D-mannopyranoside. The eluted cathepsin D activity was dialyzed against 25mM Tris, pH 7.5, and stored at -40°C (Con A pool) until use. For each assay, 50 μL of the Con A pool was diluted to 270 μL in 200mM sodium citrate, pH 4.5, 150mM sodium chloride (NaCl), and incubated for 10 minutes at 4°C with 15 μL of compound stock diluted in dimethylsulfoxide (DMSO). The substrate, porcine renin tetradecapeptide ([…] [SEQ ID NO:3], Bachem Bioscience, Inc., Philadelphia, PA), was added to each reaction mixture to yield a final concentration of 44 μM in a total volume of 300 μL. The samples were incubated at 37°C for 0, 10, 20, or 30 minutes, and then boiled for 5 minutes to stop the reaction. The samples were centrifuged in a microcentrifuge for 10 minutes at 14,000 rpm at 4°C. After centrifugation, 200 μL of each reaction was injected onto […] column (Vydac, Hesperia, CA) with a Perkin Elmer ISS 100 autosampler and eluted with a gradient eluent of 0-50% CH3CN in 0.1% CF3CO2H at 2 mL/min. Peptide product peaks were monitored at 220nm with a Perkin Elmer LC 95 detector and integrated with Rainin Dynamax software in order to quantitate activity.

βAP production = assay: Assay 4: βAP production inhibition (cellular assay, ELISA of conditioned media, normalised to MTT); format: cell-based, human; Chinese hamster; conditions: compound at 10 µg/mL; 293 751 SWE and CHO 751 SWE cells (table does not say which); βAP ELISA divided by MTT result, relative to drug-free control; mean and standard deviation of at least six replicate assays
From the text: The test system used to measure the βAP production inhibition activity is typically a cellular assay or an animal model. Preferably, the βAP production inhibition activity is obtained by direct measurement of βAP production in a cellular assay, as described in WO9410569, the full disclosure of which is incorporated herein by reference. This assay is exemplified in Assay 4, below.
Two cell lines (human kidney cell line 293 and Chinese hamster ovary cell line CHO) were stably transfected with the gene for APP-751 containing the double mutation Lys₆₅₁-Met₆₅₂ to Asn₆₅₁-Leu₆₅₂ (APP-751 numbering) commonly called the Swedish mutation using the method described in Citron et al., (1992) Nature 360:672-674. The transfected cell lines were designated as 293 751 SWE and CHO 751 SWE, and were plated in Corning 96 well plates at 2.5x10⁴ or 1x10⁴ cells per well respectively in Dulbecco's minimal essential media plus 10% fetal bovine serum. Following overnight incubation at 37°C in an incubator equilibrated with 10% carbon dioxide (CO₂), the media were removed and replaced with 200 µL per well of media containing an aspartyl protease inhibitor. After a two hour pretreatment period, the media were again removed and replaced with fresh media containing the aspartyl protease inhibitor and the cells were incubated for an additional two hours.
After treatment, plates were centrifuged in a Beckman GPR at 1200 rpm for five minutes at room temperature to pellet cellular debris from the conditioned media. From each well, 100µL of conditioned media were transferred into an ELISA plate precoated with antibody 266 against βAP-13-28 (Seubert et al., supra.) and stored at 4°C overnight. An ELISA assay employing labelled antibody 6C6 (against βAP-1-16) was run the next day to measure the amount of βAP produced.
Cytotoxic effects of the compounds were measured by a modification of the method of Hansen et al., (1989) J. Immun. Meth. 119:203-210. To the cells remaining in the tissue culture plate, was added 25 µL of a 3,(4,5-dimethylthiazol-2-yl)2,5-diphenyltetrazolium bromide (MTT) stock solution (5 mg/mL) to a final concentration of 1 mg/mL. Cells were incubated at 37°C for one hour, and cellular activity was stopped by the addition of an equal volume of MTT lysis buffer (20% w/v sodium dodecylsulfate in 50% DMF, pH 4.7). Complete extraction was achieved by overnight shaking at room temperature. The difference in the OD562nm and the OD650nm was measured in a Molecular Devices UVmax microplate reader as an indicator of the cellular viability.
The results of the βAP ELISA were fit to a standard curve and expressed as ng/mL βAP peptide. In order to normalize for cytotoxicity, these βAP results were divided by the MTT results and expressed as a percentage of the results from a drug-free control.
The compounds prepared above in Examples 9, 12, 13, 20-23, 23A, 24, 30, 41-43, 45, and 48 were assayed for βAP production inhibition activity in cells at 10 µg/mL using Assay 4. The results presented in Assay Table 4, below, are the mean and standard deviation of at least six replicate assays. Assay Table 4

Human liver cathepsin D = Human liver cathepsin D (Homo sapiens, UniProt P07339); assay: Assay 2: cathepsin D inhibition activity (non-cellular fluorometric assay); format: biochemical; set-up: Human liver cathepsin D (Athens Research and Technology, Athens, GA); purchased Athens Research and Technology, Athens, GA; conditions: compound at 10 µg/mL; percent inhibition of control activity; mean and standard deviation of at least four replicate assays
Protocol: A second non-cellular assay for determining in vitro aspartyl protease inhibitory activity utilizes a microtiter plate, where a suitable aspartyl protease, such as cathepsin D is added to each well together with controls. A suitable fluorometric substrate is added to each well. The resultant reaction mixture is allowed to react for a preselected time, e.g., 30 minutes. After enzyme activity is terminated, the substrate or its product may be determined fluorometrically and then the protease inhibition activity may be calculated based on the rates of substrate turnover. This assay is exemplified in Assay 2, below.
A fluorometric assay was adapted from the method disclosed by Murakami et al., (1981) Anal. Biochem. 110:232-239 for measuring renin activity. Human liver cathepsin D (Athens Research and Technology, Athens, GA) was diluted in assay buffer, 200mM NaOAc, pH 4.5, 150mM NaCl to 500 ng/mL and then 100 µL of this cathepsin D solution was added to each well of a 96 well plate with the exception of control wells which received just 100 µL of assay buffer. Compound stocks were prepared by dissolving an aspartyl protease inhibitor in DMSO for each concentration tested in the assay and then 5 µL of compound stock was added to each of the wells prepared above. Blank and enzyme control wells each received 5 µL of the DMSO vehicle.
Following a ten minute incubation at 25°C to allow enzyme/compound interaction, 5 µL of 500µM fluorometric substrate (Suc-Arg-Pro-Phe-His-Leu-Leu-Val-Try-AMC [SEQ ID NO:4], Bachem Biosciences, Philadelphia, PA) in DMSO was added per well to initiate the reaction. After incubation at 37°C for 30 minutes, cathepsin D activity was terminated by the addition of 100 µL per well of 400 mU/mL microsomal leucine aminopeptidase (EC 3.4.11.2, Sigma, St. Louis, MO) in 1M Tris-HCl, pH 8.0.
The plates were then analyzed in a fluorometer (CytoFluor 2350, Millipore, Bedford, MA) with an excitation wavelength of 360nm and an emission wavelength of 460nm, in order to check for background fluorescence due to test compounds. Following a two hour incubation at 37°C, to allow the aminopeptidase to release the fluorophore, 7-amido-4-methylcoumarin (AMC) from the products of cathepsin D cleavage, the plates were again analyzed in the fluorometer. In order to check for potential false positives, i.e., inhibitors of microsomal leucine aminopeptidase, residual aminopeptidase activity was monitored directly in each well by the addition of 20 µL/well of 2.5mM Leu-pNA (Bachem Biosciences, Philadelphia, PA) in 10% DMSO. Aminopeptidase activity was measured as an increase in the absorbance at 405nm in a UVmax microplate reader (Molecular Devices, Menlo Park, CA).
The compounds prepared in Examples 9, 12, 13, 20-23, 23A, 24, 30, 41-43, 45, and 48 were assayed at 10 µg/mL for cathepsin D inhibition activity using Assay 2. Cathepsin D activity was linear under these conditions and the results are expressed as percent inhibition of the control activity in Assay Table 2, below. All results presented are the mean and standard deviation of at least four replicate assays. Assay Table 2

Chain of Human liver cathepsin D (P07339 169-412 limits assumed): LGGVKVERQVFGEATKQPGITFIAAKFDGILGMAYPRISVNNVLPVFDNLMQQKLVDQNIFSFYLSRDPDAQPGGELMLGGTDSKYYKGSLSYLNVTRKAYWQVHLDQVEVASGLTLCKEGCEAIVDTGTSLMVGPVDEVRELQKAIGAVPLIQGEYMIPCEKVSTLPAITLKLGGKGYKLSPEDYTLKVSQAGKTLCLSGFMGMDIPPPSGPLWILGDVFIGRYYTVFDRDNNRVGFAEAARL
Chain of Human liver cathepsin D (P07339 65-162 limits assumed): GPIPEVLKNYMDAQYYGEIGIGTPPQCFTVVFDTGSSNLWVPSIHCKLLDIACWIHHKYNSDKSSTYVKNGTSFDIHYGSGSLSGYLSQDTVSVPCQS
T1 sequence (P07339 65-412): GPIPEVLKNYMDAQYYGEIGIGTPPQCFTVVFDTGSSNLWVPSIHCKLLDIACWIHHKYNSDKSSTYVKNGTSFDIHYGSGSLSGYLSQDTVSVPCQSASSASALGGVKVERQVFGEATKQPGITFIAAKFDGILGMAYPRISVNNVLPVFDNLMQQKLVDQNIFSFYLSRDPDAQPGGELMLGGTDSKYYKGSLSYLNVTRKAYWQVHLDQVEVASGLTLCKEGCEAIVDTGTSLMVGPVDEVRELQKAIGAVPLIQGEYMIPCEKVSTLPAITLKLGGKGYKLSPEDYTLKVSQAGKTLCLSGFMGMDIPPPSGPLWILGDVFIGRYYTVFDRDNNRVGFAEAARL

Compound: CC(C)C[C@H](NC(=O)[C@@H](NC(=O)CNC(C)C)C(C)C)[C@@H](O)CC(=O)N[C@@H](C)C(=O)N[C@H](C(=O)O)[C@@H](C)O [Example 46, (CH3)2CH-Gly-Val-Sta-Ala-Thr-OH] (H-[N(iPr)Gly]V[Sta]AT-OH)
- IC50 (Human brain cathepsin D): > 250 nM

Compound: CC(C)[C@H](NC(=O)c1ccc2ccccc2c1)C(=O)N[C@@H](Cc1ccccc1)[C@H](O)Cc1ccccc1C(=O)NC(C)(C)C [Example 13]
- inhibition at 10 µg/mL (βAP production): 91.4 ± 3.9%
- inhibition at 10 µg/mL (Human liver cathepsin D): 91.4 ± 0.4%

Compound: CC(C)C[C@H](NC(=O)c1ccc2ccccc2n1)C(=O)N[C@@H](Cc1ccccc1)[C@H](O)Cc1ccccc1C(=O)NC(C)(C)C [Example 20, [1S-(1R*,4R*,5S*)]-N-(1-(2-Methylpropyl)-2-oxo-3-aza-4-phenylmethyl-5-hydroxy-6-(2-(1-t-butylamino-1-oxomethyl)phenyl)hexyl)-quinolin-2-yl carboxamide]
- inhibition at 10 µg/mL (βAP production): 94.8 ± 3.1%
- inhibition at 10 µg/mL (Human liver cathepsin D): 94.8 ± 0.6%

Compound: CC[C@H](C)[C@H](NC(=O)[C@@H](NC(=O)[C@@H](NC(=O)CNC(C)C)C(C)C)C(C)C)C(=O)N[C@@H](CC(C)C)[C@@H](O)CC(=O)N[C@H](C(=O)O)[C@@H](C)O [Example 47, (CH3)2CH-Gly-Val-Val-Ile-Sta-Thr-OH] (H-[N(iPr)Gly]VVI[Sta]T-OH)
- IC50 (Human brain cathepsin D): > 250 nM

Compound: CC(C)[C@H](NC(=O)c1cnc2ccccc2n1)C(=O)N[C@@H](Cc1ccccc1)[C@H](O)Cc1ccccc1C(=O)NC(C)(C)C [Example 12, [1S-(1R*,4R*,5S*)]-N-(1-Isopropyl-2-oxo-3-aza-4-phenylmethyl-5-hydroxy-6-(2-(1-t-butylamino-1-oxomethyl)phenyl)hexyl)-2-quinoxalinyl acetamide]
- inhibition at 10 µg/mL (βAP production): 12.4 ± 6%
- inhibition at 10 µg/mL (Human liver cathepsin D): 12.4 ± 3.7%

Compound: CC[C@H](C)[C@H](NC(=O)C[C@H](O)[C@H](CC(C)C)NC(=O)CNC(C)C)C(=O)N[C@@H](C)C(=O)N[C@H](C(=O)O)[C@@H](C)O [Example 44, (CH3)2CH-Gly-Sta-Ile-Ala-Thr-OH] (H-[N(iPr)Gly][Sta]IAT-OH)
- IC50 (Human brain cathepsin D): > 100 nM

Compound: CC(C)[C@H](NC(=O)OC(C)(C)C)C(=O)N[C@@H](Cc1ccccc1)[C@H](O)Cc1ccccc1C(=O)NC(C)(C)C [Example 23A, [2R-(2R*,3S*,6S*)]-N-t-Butyl-2-[2-hydroxy-3-phenylmethyl-4-aza-5-oxo-6-N(t-butoxycarbonyl)amino-7-methyl]octyl benzamide]
- inhibition at 10 µg/mL (βAP production): 32.5 ± 3.3%
- inhibition at 10 µg/mL (Human liver cathepsin D): 32.5 ± 4.7%

Compound: [1S-(1R*,4R*,5S*)]-N-(1-(Propyl)-2-oxo-3-aza-4-phenylmethyl-5-hydroxy-6-(2-(1-t-butylamino-1-oxomethyl)phenyl)hexyl)-quinolin-2-yl carboxamide [Example 21]
- βAP Production Inhibition (βAP production): 78.3 ± 1.5%
- Cathepsin D Inhibition (Human liver cathepsin D): 78.3 ± 3.8%
